Measurements: the supplement of paper PMC10307832

compound: Cc1cc([C@@H](C)Nc2ccccc2C(=O)O)c2nc(N3CCOCC3)cc(=O)n2c1 [AZD6482] + CS(=O)(=O)CCNCc1ccc(-c2ccc3ncnc(Nc4ccc(OCc5cccc(F)c5)c(Cl)c4)c3c2)o1 [Lapatinib] (partner 2 µM); experiment: relative viability (nuclei count vs DMSO), 5 days (fraction); higher = more cells survive; details: first compound 0.08 µM
Outline: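 Relative viability is defined as nuclei in treated wells over nuclei in vehicle wells. Duplicate plates were run and medians reported. Lung cancer cell lines in 1536-well plates were dosed by pin tool one day after seeding, with one drug or with a fixed anchor-drug dose plus five library-drug doses (not always all listed) in √10 steps, and nuclei were counted after 5 days.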

Cell Line	relative viability
HCC-15	0.873
NCI-H1793	0.559
PC-14	0.257
EKVX	0.173
LC-2-ad	1.06
NCI-H1563	0.902
NCI-H1944	0.85
NCI-H1975	0.727
RERF-LC-KJ	0.752
ABC-1	1.07
NCI-H358	0.443
NCI-H650	0.999
PC-3 [JPC-3]	0.438

same assay, conditions: first compound 0.253 µM

Cell Line	relative viability
NCI-H1299	0.956
NCI-H1651	0.608
NCI-H2228	0.994
NCI-H1792	0.815
NCI-H1355	0.903
NCI-H3122	0.993
NCI-H1437	0.747
NCI-H1755	0.969
NCI-H2023	0.74
HCC-15	0.792
NCI-H1793	0.368
PC-14	0.234
EKVX	0.342
LC-2-ad	0.553
NCI-H1563	0.842
NCI-H1944	0.863
NCI-H1975	0.802
RERF-LC-KJ	0.836
ABC-1	1.16
NCI-H358	0.417
PC-3 [JPC-3]	0.433

same assay, conditions: first compound 0.8 µM

Cell Line	relative viability
NCI-H1299	1.11
NCI-H647	0.804
CAL-12T	0.529
NCI-H1651	0.77
EPLC-272H	1.01
NCI-H2228	0.971
NCI-H1792	0.879
NCI-H1355	0.956
NCI-H3122	1.03
NCI-H1437	0.769
NCI-H1755	1.03
NCI-H2023	0.798
HCC-15	0.882
NCI-H1793	0.565
PC-14	0.255
EKVX	0.181
LC-2-ad	1.1
NCI-H1563	0.876
NCI-H1944	0.926
NCI-H1975	0.814
RERF-LC-KJ	0.705
ABC-1	1.07
NCI-H358	0.386
NCI-H650	0.948
PC-3 [JPC-3]	0.438

same assay, conditions: first compound 2.53 µM

Cell Line	relative viability
NCI-H1299	0.948
NCI-H647	0.524
CAL-12T	0.272
NCI-H1651	0.563
EPLC-272H	0.709
NCI-H2228	0.662
NCI-H1792	0.628
NCI-H1355	0.678
NCI-H3122	0.893
NCI-H1437	0.592
NCI-H1755	0.704
NCI-H2023	0.424
HCC-15	0.737
PC-14	0.196
EKVX	0.141
LC-2-ad	0.638
NCI-H1563	0.674
NCI-H1944	0.527
NCI-H1975	0.626
RERF-LC-KJ	0.791
ABC-1	1.03
NCI-H358	0.258
NCI-H650	0.454
PC-3 [JPC-3]	0.349

same assay, conditions: first compound 8 µM

Cell Line	relative viability
NCI-H1299	0.983
NCI-H647	0.744
CAL-12T	0.578
NCI-H1651	0.522
EPLC-272H	0.673
NCI-H2228	0.715
NCI-H1792	0.598
NCI-H1355	0.717
NCI-H3122	1.11
NCI-H1437	0.421
NCI-H1755	0.749
NCI-H2023	0.422
HCC-15	0.914
NCI-H1793	0.321
PC-14	0.219
EKVX	0.167
LC-2-ad	0.918
NCI-H1563	0.778
NCI-H1944	0.564
NCI-H1975	0.581
RERF-LC-KJ	0.67
ABC-1	0.932
NCI-H358	0.365
NCI-H650	0.534
PC-3 [JPC-3]	0.422

compound: COc1cc2nc(N3CCCN(C)CC3)nc(NC3CCN(Cc4ccccc4)CC3)c2cc1OC; experiment: relative viability (nuclei count vs DMSO), 5 days (fraction); higher = more cells survive; details: 0.2 µM
Outline: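 Viability was defined as treated-well nuclei divided by vehicle-well nuclei, with the median taken over replicate plates. Cells from lung cancer lines sat overnight at 37 °C in 1536-well plates, received five √10-spaced library-drug doses by pinning on vehicle-anchored plates, and grew 5 days without medium change before one-step fixation, permeabilisation and Hoechst staining, 4× imaging and MetaXpress nuclear counts. Only plates with control CV under 25% and at least one doubling were kept.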

Cell Line	relative viability
NCI-H1299	0.984
NCI-H647	0.872
CAL-12T	0.905
